How the values were obtained:
[1] = biological target: Tyrosine-protein kinase HCK (Homo sapiens) (UniProt P08631); assay: Selectivity interaction (ActivX KiNativ screen (kinase selectivity in THP-1 cell lysates)) EUB0000639a HCK; assay type: subcellular; details: lysate, at 5 µM
[2] = biological target: T1, Serine/threonine-protein kinase Nek5 (Homo sapiens) (UniProt Q6P3R8); assay: Selectivity interaction (KinomeScan (DiscoverX)) EUB0000695a NEK5; details: at 100 nM
T1 sequence (whole entry): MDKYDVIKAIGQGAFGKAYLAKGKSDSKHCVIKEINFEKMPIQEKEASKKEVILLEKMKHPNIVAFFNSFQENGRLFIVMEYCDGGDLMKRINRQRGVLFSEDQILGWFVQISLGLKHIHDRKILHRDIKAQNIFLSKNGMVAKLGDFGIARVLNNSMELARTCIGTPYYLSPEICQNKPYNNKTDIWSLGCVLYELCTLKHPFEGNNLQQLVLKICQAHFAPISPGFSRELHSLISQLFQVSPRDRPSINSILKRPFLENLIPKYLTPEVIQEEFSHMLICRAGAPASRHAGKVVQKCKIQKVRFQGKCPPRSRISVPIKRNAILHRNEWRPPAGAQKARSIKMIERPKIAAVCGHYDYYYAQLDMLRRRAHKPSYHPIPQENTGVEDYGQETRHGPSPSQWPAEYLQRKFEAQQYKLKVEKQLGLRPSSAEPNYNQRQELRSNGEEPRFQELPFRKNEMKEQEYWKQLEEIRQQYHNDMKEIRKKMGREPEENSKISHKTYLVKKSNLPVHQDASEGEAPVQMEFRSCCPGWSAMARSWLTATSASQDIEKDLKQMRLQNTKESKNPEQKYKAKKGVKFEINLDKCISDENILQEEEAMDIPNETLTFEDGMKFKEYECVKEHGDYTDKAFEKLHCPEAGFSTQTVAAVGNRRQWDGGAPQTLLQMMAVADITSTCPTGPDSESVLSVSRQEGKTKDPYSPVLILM

[3] = biological target: T2, Serine/threonine-protein kinase DCLK2 (Homo sapiens) (UniProt Q8N568); assay: Selectivity interaction (KinomeScan (DiscoverX)) EUB0000229b DCLK2; details: at 10 µM
T2 sequence (whole entry): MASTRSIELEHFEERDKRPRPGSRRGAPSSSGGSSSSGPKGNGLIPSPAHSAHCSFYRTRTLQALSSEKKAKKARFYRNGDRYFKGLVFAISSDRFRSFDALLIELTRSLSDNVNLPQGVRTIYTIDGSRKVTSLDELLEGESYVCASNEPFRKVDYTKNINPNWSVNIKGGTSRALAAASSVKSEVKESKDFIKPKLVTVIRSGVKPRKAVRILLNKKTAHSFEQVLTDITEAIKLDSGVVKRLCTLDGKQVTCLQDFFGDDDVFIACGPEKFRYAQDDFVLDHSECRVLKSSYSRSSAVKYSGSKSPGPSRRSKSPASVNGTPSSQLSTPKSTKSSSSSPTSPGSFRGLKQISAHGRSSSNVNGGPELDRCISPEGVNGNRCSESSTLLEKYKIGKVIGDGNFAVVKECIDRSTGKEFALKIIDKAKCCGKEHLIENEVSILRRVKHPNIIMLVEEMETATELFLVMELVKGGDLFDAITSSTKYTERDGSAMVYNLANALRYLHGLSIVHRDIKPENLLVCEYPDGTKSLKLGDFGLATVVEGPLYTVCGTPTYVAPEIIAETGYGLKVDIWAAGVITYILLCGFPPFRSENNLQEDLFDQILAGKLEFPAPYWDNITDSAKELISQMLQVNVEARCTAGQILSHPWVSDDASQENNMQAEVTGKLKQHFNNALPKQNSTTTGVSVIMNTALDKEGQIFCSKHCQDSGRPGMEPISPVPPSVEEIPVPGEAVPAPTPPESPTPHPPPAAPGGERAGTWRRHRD

[4] = biological target: T3, Aurora kinase C (Homo sapiens) (UniProt Q9UQB9); assay: Selectivity interaction (KinomeScan (DiscoverX)) EUB0000092b AURKC; details: at 10 µM
T3 sequence (whole entry): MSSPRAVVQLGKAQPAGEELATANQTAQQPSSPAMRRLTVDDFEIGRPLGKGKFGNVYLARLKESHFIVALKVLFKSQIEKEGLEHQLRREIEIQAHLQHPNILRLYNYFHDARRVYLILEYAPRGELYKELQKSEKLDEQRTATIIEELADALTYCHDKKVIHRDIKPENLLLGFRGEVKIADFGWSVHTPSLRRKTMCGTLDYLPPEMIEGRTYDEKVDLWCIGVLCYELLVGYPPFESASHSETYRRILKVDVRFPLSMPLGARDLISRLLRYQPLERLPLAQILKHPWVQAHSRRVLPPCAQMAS

[5] = biological target: T4, Serine/threonine-protein kinase TBK1 (Homo sapiens) (UniProt Q9UHD2); assay: Selectivity interaction (KinomeScan (DiscoverX)) EUB0000666a TBK1; details: at 10 µM
T4 sequence (whole entry): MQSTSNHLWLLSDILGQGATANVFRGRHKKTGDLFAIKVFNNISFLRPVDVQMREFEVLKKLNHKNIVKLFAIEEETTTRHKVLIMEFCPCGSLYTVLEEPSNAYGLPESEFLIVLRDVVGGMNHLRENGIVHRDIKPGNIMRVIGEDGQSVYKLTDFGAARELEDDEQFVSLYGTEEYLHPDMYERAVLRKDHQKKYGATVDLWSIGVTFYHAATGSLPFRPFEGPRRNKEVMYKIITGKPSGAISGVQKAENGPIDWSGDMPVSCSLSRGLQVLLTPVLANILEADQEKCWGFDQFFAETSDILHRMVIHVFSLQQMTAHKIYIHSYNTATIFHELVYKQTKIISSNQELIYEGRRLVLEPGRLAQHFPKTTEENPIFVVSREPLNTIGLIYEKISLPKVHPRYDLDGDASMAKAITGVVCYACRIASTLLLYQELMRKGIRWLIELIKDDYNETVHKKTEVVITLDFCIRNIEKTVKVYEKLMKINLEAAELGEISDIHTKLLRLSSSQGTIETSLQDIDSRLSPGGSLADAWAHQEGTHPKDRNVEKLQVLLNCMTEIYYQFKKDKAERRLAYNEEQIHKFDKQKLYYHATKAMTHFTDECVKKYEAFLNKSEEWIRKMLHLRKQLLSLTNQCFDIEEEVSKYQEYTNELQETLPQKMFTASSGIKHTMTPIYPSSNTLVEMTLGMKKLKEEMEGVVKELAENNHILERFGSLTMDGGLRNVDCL

Tyrosine-protein kinase HCK (Homo sapiens), sequence (P08631 2-526 limits assumed): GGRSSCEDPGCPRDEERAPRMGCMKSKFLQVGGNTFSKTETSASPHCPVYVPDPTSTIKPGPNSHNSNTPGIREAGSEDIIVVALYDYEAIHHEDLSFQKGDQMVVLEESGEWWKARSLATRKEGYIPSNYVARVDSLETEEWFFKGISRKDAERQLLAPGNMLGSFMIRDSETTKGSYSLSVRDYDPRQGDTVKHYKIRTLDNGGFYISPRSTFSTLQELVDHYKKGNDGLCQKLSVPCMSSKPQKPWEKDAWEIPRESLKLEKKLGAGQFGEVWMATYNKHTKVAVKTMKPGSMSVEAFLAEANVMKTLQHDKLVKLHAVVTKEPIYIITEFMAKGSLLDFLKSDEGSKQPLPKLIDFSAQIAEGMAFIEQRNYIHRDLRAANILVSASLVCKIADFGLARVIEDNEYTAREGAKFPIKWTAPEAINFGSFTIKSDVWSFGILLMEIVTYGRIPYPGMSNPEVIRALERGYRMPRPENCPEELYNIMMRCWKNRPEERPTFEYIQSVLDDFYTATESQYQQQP

For CC[C@@H]1[C@H](F)C(=O)N[C@@H]1COc1nccc2cc(C(N)=O)c(OC)cc12 [ZIMLOVISERTIB], the % of inhibition [1] was -20.3%.
Compound Cc1cc(F)c(C(=O)Nc2cccc(-c3nncn3C(C)C)n2)cc1-n1cnc(C2CC2)c1 has a % of control [2] of 91%.
Work on COc1cc(N(C)c2ccnc3ccc(C(F)(F)F)cc23)cc(OC)c1OC yielded a % binding [3] of 100%.
Work on CCC(=O)N1CCN(c2ccc(-n3c(=O)ccc4cnc5ccc(-c6cnc7ccccc7c6)cc5c43)cc2C(F)(F)F)CC1 yielded a % of control [4] of 91%.
O=C(NOC[C@H](O)CO)c1ccc(F)c(F)c1Nc1ccc(I)cc1F showed a % of control [5] of 85%.

— ChEMBL document CHEMBL5465560, “Selectivity Literature for EUbOPEN Chemogenomic Library” (2024)
